Values joined by “and” are separate entries in the source; they are usually repeats but may differ in a detail not shown here. Equal values may be shown once. Square brackets hold non-standard residues; d marks the D form. Peptide text beside a SMILES is read from it. * marks the point of attachment. dNle = CCCC[C@@H](N)C(=O)O; X1 = [O-][n+]1ccc(CN*)cc1
Legend:
P450 2C9 = P450 2C9 (Homo sapiens, UniProt P11712); assay: P450 2C9 inhibition; format: in vitro ADME
Protocol: (§1) Enzyme assays are well known in the art and CYP450 enzymes from several species have been cloned. Although these cloned enzymes readily allow a particular candidate compound, e.g., a peptide, to be screened, natural sources of CYP450 enzymes, e.g., liver microsomes, are also useful for screening, as is well known in the art. Preferred analogs have a Ki for CYP450 enzymes of about 10 micromolar (uM) or more, whereas more preferred analogs have a Ki for […] of about 100 uM or more. For the purpose of identifying useful compounds of the invention, the IC50 is a useful approximation of the Ki.

P450 1A2 = molecular target: T1, P450 1A2 (Homo sapiens, UniProt P05177); assay: P450 1A2 inhibition; format: in vitro ADME
T1 sequence (P05177 1-516): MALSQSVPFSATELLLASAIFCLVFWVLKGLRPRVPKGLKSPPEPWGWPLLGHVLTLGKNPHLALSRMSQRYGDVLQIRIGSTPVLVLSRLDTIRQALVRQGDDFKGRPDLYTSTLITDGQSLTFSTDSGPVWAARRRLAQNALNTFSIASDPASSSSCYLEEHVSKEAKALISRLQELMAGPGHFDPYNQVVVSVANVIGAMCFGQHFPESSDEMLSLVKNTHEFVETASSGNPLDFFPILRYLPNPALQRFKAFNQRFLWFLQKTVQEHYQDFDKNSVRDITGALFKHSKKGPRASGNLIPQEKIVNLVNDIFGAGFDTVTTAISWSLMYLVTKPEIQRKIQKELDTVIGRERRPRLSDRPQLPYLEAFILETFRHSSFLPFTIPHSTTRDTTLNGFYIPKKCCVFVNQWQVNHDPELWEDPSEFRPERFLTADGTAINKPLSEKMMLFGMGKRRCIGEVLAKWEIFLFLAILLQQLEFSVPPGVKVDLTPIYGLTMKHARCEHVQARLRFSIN
Protocol: as §1

P450 3A4 [1] = molecular target: T2, P450 3A4 (Homo sapiens, UniProt P08684); assay: P450 3A4/BQ inhibition; format: in vitro ADME
Protocol: as §1

P450 3A4 [2] = molecular target: T2, P450 3A4; assay: P450 3A4/BFC inhibition; format: in vitro ADME
Protocol: as §1

Mu Opioid Receptor = molecular target: T3, Mu Opioid Receptor (Rattus norvegicus, UniProt P33535); assay: Mu opioid receptor binding, competitive displacement of bound radioligand (rat brain membranes)
T3 construct: from tissue; host or cells: rat brain membranes
Source text: (§2) Receptor assays are well known in the art and kappa opioid receptors from several species have been cloned, as have mu and delta opioid receptors. Kappa opioid receptors as well as mu and delta opioid receptors are classical, seven-transmembrane spanning, G-protein coupled receptors. Although these cloned receptors readily allow a particular candidate compound, e.g., a peptide, to be screened, natural sources of mammalian opioid receptors are also useful for screening, as is well known in the art (Dooley C T et al. Selective ligands for the mu, delta, and kappa opioid receptors identified from a single mixture based tetrapeptide positional scanning combinatorial library. J. Biol. Chem. 273:18848-56, 1998). Thus, screening against both kappa and mu opioid receptors, whether of recombinant or natural origin, may be carried out in order to determine the selectivity of the compound(s) for the kappa relative to the mu opioid receptor.
(§3) Binding affinity refers to the strength of interaction between ligand and receptor. […] These studies can be performed using cloned kappa and mu opioid receptors expressed in stable transfected cell lines or naturally occurring opioid receptors from a receptor-enriched tissue source, as noted above. In these studies, the test compounds (unlabeled ligands) are used at increasing concentrations to displace the specific binding of a radiolabeled ligand that has high affinity and selectivity for the receptor studied. Tritiated U-69,593 and DAMGO can be used as ligands in kappa and mu opioid receptor studies, respectively. Both ligands are commercially available (NEN-Dupont). DAMGO is an acronym for [D-Ala^2, MePhe^4, Gly-ol^5]-enkephalin. The affinity of the radioligands is defined by the concentration of radioligand that results in half-maximal specific binding (KD) in saturation studies. The affinity of the test compound (unlabeled or cold ligand) is determined in competition binding studies by calculating the inhibitory constant (Ki) according to the following formula:
(§4) where IC50=Concentration of the cold ligand that inhibits 50% of the specific binding of the radioligand
(§5) F=free radioligand concentration
(§6) KD=affinity of the radioligand determined in saturation studies.
(§7) When performing these assays under specific conditions with relatively low concentrations of receptor, the calculated Ki for the test compound is a good approximation of its dissociation constant KD, which represents the concentration of ligand necessary to occupy one-half (50%) of the binding sites. […]
(§8) These binding assays employing kappa opioid receptors and mu opioid receptors are straightforward to perform and can be readily carried out with large numbers of compounds to determine whether such compounds are kappa opioid receptor-selective and have high affinity. […]

Kappa Opioid Receptor [3] = molecular target: T4, Kappa Opioid Receptor (Cavia porcellus, UniProt P41144); assay: Kappa opioid receptor binding, competitive displacement of bound radioligand (guinea pig brain membranes); conditions: for IC50: Kappa Opioid Receptor Binding IC50, guinea pig brain; for Kappa Opioid Receptor Binding Pct Max: guinea pig brain
T4 construct: from tissue; host or cells: guinea pig brain membranes
Source text: as §2, §3, §4, §5, §6, §7, §8

Kappa Opioid Receptor [4] = molecular target: T5, Kappa Opioid Receptor (Mus musculus, UniProt P33534); assay: Functional second messenger assay, Gi-mediated inhibition of adenylate cyclase (cAMP, mouse brain); format: biochemical; conditions: for EC50: Kappa Opioid Receptor Activity EC50, cAMP; for Kappa Opioid Receptor Activity Pct Max: cAMP
T5 construct: (cAMP, mouse brain); from tissue; host or cells: mouse brain

cytochrome P450 enzymes = assay: Cytochrome P450 enzyme activities; format: in vitro ADME; conditions: summary of Table 4
Protocol: as §1

Compound: CCCC[C@@H](NC(=O)[C@@H](Cc1ccccc1)NC(=O)[C@H](N)Cc1ccccc1)C(=O)N[C@H](CCCNC(=N)N)C(=O)NCc1cc[n+]([O-])cc1 [Peptide No. 1, H-D-Phe-D-Phe-D-Nle-D-Arg-NH-4-picolyl-N-oxide] (H-[dF][dF][dNle][dR]-X1)
- IC50 (P450 2C9): > 10 µM
- P450 2C9 Inhibition Pct Max (P450 2C9; Mean): 26 Pct
- P450 2C9 Inhibition Pct Max (P450 2C9; individual samples): 21 Pct and 31 Pct
- P450 1A2 Inhibition Pct Max (P450 1A2; Mean): 13 Pct
- P450 1A2 Inhibition IC50 (P450 1A2; individual samples): No Fit
- P450 1A2 Inhibition Pct Max (P450 1A2; individual samples): 15 Pct and 10 Pct
- P450 3A4/BQ Inhibition Pct Max (P450 3A4 [1]; Mean): 18 Pct
- P450 3A4/BQ Inhibition IC50 (P450 3A4 [1]; individual samples): No Fit
- P450 3A4/BQ Inhibition Pct Max (P450 3A4 [1]; individual samples): 15 Pct and 21 Pct
- P450 3A4/BFC Inhibition Pct Max (P450 3A4 [2]; Mean): 26 Pct
- P450 3A4/BFC Inhibition IC50 (P450 3A4 [2]; individual samples): No Fit
- P450 3A4/BFC Inhibition Pct Max (P450 3A4 [2]; individual samples): 22 Pct and 17 Pct and 40 Pct
- Mu Opioid Receptor Binding IC50 (Mu Opioid Receptor; rat brain): too high to determined
- maximal binding inhibition at MOR (Mu Opioid Receptor; rat brain membranes): 15.5%
- Mu Opioid Receptor Binding Pct Max (Mu Opioid Receptor; rat brain, Sample 1): 15.5 Pct
- Mu Opioid Receptor Binding IC50 (Mu Opioid Receptor; rat brain, listed as Peptide1): No Fit
- IC50 (Kappa Opioid Receptor [3]; Mean): ~6.3 nM and 6.3 nM
- IC50 (Kappa Opioid Receptor [3]; individual samples): 2.6 nM and 9.4 nM and 4.2 nM
- Kappa Opioid Receptor Binding Pct Max (Kappa Opioid Receptor [3]; Mean): 109.4 Pct
- Kappa Opioid Receptor Binding Pct Max (Kappa Opioid Receptor [3]; individual samples, listed as Peptide1): 105.2 Pct and 117.3 Pct and 105.6 Pct
- EC50 (Kappa Opioid Receptor [4]; Mean): 0.42 nM
- EC50 (Kappa Opioid Receptor [4]; individual samples): 0.3 nM and 0.57 nM
- Kappa Opioid Receptor Activity Pct Max (Kappa Opioid Receptor [4]; Mean): 101.43 Pct
- Kappa Opioid Receptor Activity Pct Max (Kappa Opioid Receptor [4]; individual samples, listed as Peptide 1): 92.46 Pct and 110.41 Pct
- inhibitory activity on several cytochrome P450 enzyme activities (cytochrome P450 enzymes): absence of significant inhibitory activity

From patent US20100029575A1, “N-Oxides of Kappa Receptor Peptides” (priority 2006, published 2010)
